Experimental data reported in US20250236629A1, “MEDIUM- OR MACRO-CYCLIC BENZYL-SUBSTITUTED HETEROCYCLE DERIVATIVES AND RELATED USES” (CENTESSA PHARMACEUTICALS (UK) LIMITED, priority 2022, published 2025).

Target: T1, human orexin type 2 receptor (hOX2R) (Homo sapiens, UniProt O43614)
T1 construct: the Orexin receptor cDNA was inserted into pcDNA3.1(+) plasmid vector; expressed in transfected cells
T1 sequence (O43614 1-444): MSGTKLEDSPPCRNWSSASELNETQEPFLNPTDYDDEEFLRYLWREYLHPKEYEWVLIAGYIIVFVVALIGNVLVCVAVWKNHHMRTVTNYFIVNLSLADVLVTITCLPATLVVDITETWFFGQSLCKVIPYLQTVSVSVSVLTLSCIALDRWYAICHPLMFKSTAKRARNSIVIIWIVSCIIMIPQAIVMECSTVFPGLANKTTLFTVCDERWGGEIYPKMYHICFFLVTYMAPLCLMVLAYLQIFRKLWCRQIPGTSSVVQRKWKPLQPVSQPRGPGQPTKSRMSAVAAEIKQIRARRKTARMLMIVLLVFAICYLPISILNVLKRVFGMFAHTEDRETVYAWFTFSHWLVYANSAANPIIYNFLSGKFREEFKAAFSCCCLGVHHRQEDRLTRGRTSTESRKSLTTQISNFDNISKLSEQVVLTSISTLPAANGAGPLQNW
Experiment: Orexin type 2 receptor agonist activity, intracellular Ca2+ (FLIPR TETRA) in CHO cells
Format: cell-based
Settings: CHO cells expressing hOX2R, Ca2+ fluorescence area, 100% = 10 nM human orexin A; for EC50: read-out: hOx2 pEC50 (converted)
Protocol: Stable cell line generation. Obtainment of cells stably expressing either human orexin type 2 or human orexin type 1 receptor: to obtain a stable cell line the Orexin receptor cDNA was inserted into pcDNA3.1(+) plasmid vector and clones identified by G418 drug resistance selection. […] A single clone for OX2R—CHO and OX1R—CHO were grown in bulk and frozen to generate a cell bank for routine screening.
Measurement of orexin type 2 receptor agonist activity. Chinese hamster ovary (CHO) cells expressing human orexin type 2 receptor (hOX2R) or human orexin type 1 receptor (hOX1R) were seeded in each well of 384 well black clear bottom plates (BD Flacon) at 10,000 cells per well and cultured for 24 hr in an Ham's F12 (Gibco) medium containing 10% fetal calf serum (Sigma Aldrich) under the conditions of 37° C., 5% CO2. After removal of the medium, 50 μl of assay buffer 1 (0.1% bovine serum albumin (Sigma Aldrich), 20 mM HEPES (Molecular Dimensions), […] probenecid (Sigma Aldrich), 1× Calcium 5 dye (Molecular Devices) in Hank's balanced salt solution (Invitrogen)) was added, and the cells were incubated for 60 min under the conditions of 37° C., 5% CO2. A test compound was dissolved in dimethyl sulfoxide (Sigma Aldrich) to 10 mM, and then diluted with assay buffer 2 (20 mM HEPES, Hank's balanced salt solution, 0.1% bovine serum albumin). For the reaction, a test compound solution (10 μl) was added using Fluorescent Imaging Plate Reader TETRA (FLIPR TETRA: manufactured by Molecular Devices), a fluorescence value (excitation wavelength 488 nm, measurement wavelength 570 nm) of each well was measured every one second for 2 min, and the agonist activity was determined using the area of the fluorescence value as an indicator of intracellular Ca^2+ concentration. The agonist activity of the test compound was calculated assuming that the fluorescence value of the well added with only the dilution buffer was 0% and the fluorescence value of the well added with 10 nM human orexin A (Tocris) buffer was 100%.
Values of hOx2 pEC50 in Table B are presented in ranges, in which 6.0≤“+”<7.0, 7.0≤“++”<8.0, 8.0≤“+++”<9.0, and 9.0≤“++++”<10.4.

Row | Molecule | EC50 | hOx2 pEC50
1 | O=C1CCOc2ccccc2-c2cccc(c2)C[C@H]2[C@@H](NS(=O)(=O)C3(F)CC3)[C@@H](F)CCN12 [Example 45, 1-fluoro-N-((4^2S,4^3R,4^4S)-4^4-fluoro-5-oxo-8-oxa-4 (2,1)-piperidina-1 (1,2),2 (1,3)-dibenzenacyclooctaphane-4^3-yl)cyclopropane-1-sulfonamide] | 1 to 10 nM | 
2 | CN1CCOc2ccccc2-c2cccc(c2F)C[C@H]2[C@@H](NS(=O)(=O)CF)C3(CC3)CN2C1=O [Example 25, 1-fluoro-N-((2′S,3′S)-2′-fluoro-6′-methyl-5′-oxospiro[cyclopropane-1,4′-9-oxa-6-aza-4(2,1)-pyrrolidina-1(1,2),2(1,3)-dibenzenacyclononaphan]-3′-yl)methanesulfonamide] | 1 to 10 nM | 
3 | O=C1CCOc2c(F)cc(F)cc2-c2cccc(c2)C[C@H]2[C@@H](NS(=O)(=O)C(F)F)CCCN12 [Example 14, N-((4^2S,4^3S)-1^3,1^5-difluoro-5-oxo-8-oxa-4(2,1)-piperidina-1(1,2),2(1,3)-dibenzenacyclooctaphane-4^3-yl)-1,1-difluoromethanesulfonamide] | 1 to 10 nM | 
4 | CN1CCOc2c(F)cccc2-c2cccc(c2F)C[C@H]2[C@@H](NS(=O)(=O)CF)C3(CC3)CN2C1=O [Example 8, N-((2′S,3′S)-2′,3′-difluoro-6′-methyl-5′-oxospiro[cyclopropane-1,4′-9-oxa-6-aza-4(2,1)-pyrrolidina-1(1,2),2(1,3)-dibenzenacyclononaphan]-3′-yl)-1-fluoromethanesulfonamide] | 0.0398 to 1 nM | 
5 | O=C1CCOc2c(F)cc(F)cc2-c2cccc(c2)C[C@H]2[C@@H](NS(=O)(=O)CF)CCCN12 [Example 13, N-((4^2S,4^3S)-1^3,1^5-difluoro-5-oxo-8-oxa-4(2,1)-piperidina-1(1,2),2(1,3)-dibenzenacyclooctaphane-4^3-yl)-1-fluoromethanesulfonamide] | 1 to 10 nM | 
6 | O=C1CCOc2ccccc2-c2cccc(c2)C[C@H]2[C@@H](NS(=O)(=O)C(F)F)CCCN12 [Example 26, 1,1-difluoro-N-((4^2S,4^3S)-5-oxo-8-oxa-4(2,1)-piperidina-1(1,2),2(1,3)-dibenzenacyclooctaphane-4^3-yl)methanesulfonamide] | 1 to 10 nM | 
7 | CC(C)S(=O)(=O)N[C@H]1[C@@H](F)CN2C(=O)N(C)CCOc3ccccc3-c3cccc(c3F)C[C@@H]12 [Example 35, N-((4^2S,4^3R,4^4S)-2^2,4^4-difluoro-6-methyl-5-oxo-9-oxa-6-aza-4(2,1)-pyrrolidina-1(1,2),2(1,3)-dibenzenacyclononaphane-4^3-yl)propane-2-sulfonamide] | 1 to 10 nM | 
8 | CCS(=O)(=O)N[C@@H]1[C@@H]2Cc3cccc(c3)-c3ccccc3OCCN(C)C(=O)N2CC1(F)F [Example 23, N-((4^2S,4^3R)-4^4,4^4-difluoro-6-methyl-5-oxo-9-oxa-6-aza-4(2,1)-pyrrolidina-1(1,2),2(1,3)-dibenzenacyclononaphane-4^3-yl)ethanesulfonamide] | 1 to 10 nM | 
9 | O=C1N(CC(F)F)CCOc2c(F)cccc2-c2cccc(c2)C[C@H]2[C@@H](NS(=O)(=O)CF)C3(CC3)CN12 [Example 22, N-((2′S,3′S)-6′-(2,2-difluoro-ethyl)-3′-fluoro-5′-oxospiro[cyclopropane-1,4′-9-oxa-6-aza-4(2,1)-pyrrolidina-1(1,2),2(1,3)-dibenzenacyclononaphan]-3′-yl)-1-fluoromethanesulfonamide] | 1 to 10 nM | 

Next, values leading:

Row | EC50 | hOx2 pEC50 | Molecule
10 | 0.0398 to 1 nM |  | O=C1CCOc2c(F)cccc2-c2cccc(c2)C[C@H]2[C@@H](NS(=O)(=O)C3(F)CC3)[C@@H](F)CCN12 [Example 46, N-((4^2S,4^3R,4^4S)-1^3,4^4-difluoro-5-oxo-8-oxa-4 (2,1)-piperidina-1 (1,2),2 (1,3)-dibenzenacyclooctaphane-4^3-yl)-1-fluorocyclopropane-1-sulfonamide]
11 | 1 to 10 nM |  | CN1CCOc2c(F)cc(F)cc2-c2cccc(c2F)C[C@H]2[C@@H](NS(=O)(=O)CF)C3(CC3)CN2C1=O [Example 40, 1-fluoro-N-((2′S,3′S)-2′,3′,5′-trifluoro-6′-methyl-5′-oxospiro[cyclopropane-1,4′-9-oxa-6-aza-4(2,1)-pyrrolidina-1(1,2),2(1,3)-dibenzenacyclononaphan]-3′-yl)methanesulfonamide]
12 | 10 to 100 nM |  | CN1CCOc2c(F)cccc2-c2cccc(c2)C[C@H]2[C@@H](NS(=O)(=O)C(F)F)C(F)(F)CN2C1=O [Example 1, 1,1-difluoro-N-((4^2S,4^3R)-1^3,4^4,4^4-trifluoro-6-methyl-5-oxo-9-oxa-6-aza-4(2,1)-pyrrolidina-1(1,2),2(1,3)-dibenzenacyclononaphane-4^3-yl)methanesulfonamide]
13 | 0.0398 to 1 nM |  | O=C1CCOc2ccccc2-c2cccc(c2)C[C@H]2[C@@H](NS(=O)(=O)C3(F)CC3)CCCN12 [Example 50, 1-fluoro-N-((4^2S,4^3S)-5-oxo-8-oxa-4 (2,1)-piperidina-1 (1,2),2 (1,3)-dibenzenacyclooctaphane-4^3-yl)cyclopropane-1-sulfonamide]
14 |  | +++ (8.0≤“+++”<9.0) | N-((2′S,3′S)-3′-fluoro-6′-methyl-5′-oxospiro[cyclopropane-1,4′-9-oxa-6-aza-4(2,1)-pyrrolidina-1(1,2),2(1,3)-dibenzenacyclononaphan]-3′-yl)ethanesulfonamide [Example 19]
15 | 1 to 10 nM |  | CN1CCOc2c(F)cccc2-c2cccc(c2)C[C@H]2[C@@H](NS(=O)(=O)CF)[C@@H](F)CN2C1=O [Example 21, N-((4^2S,4^3R,4^4S)-1^3,4^4-difluoro-6-methyl-5-oxo-9-oxa-6-aza-4(2,1)-pyrrolidina-1(1,2),2(1,3)-dibenzenacyclononaphane-4^3-yl)-1-fluoromethanesulfonamide]
16 | 0.0398 to 1 nM |  | C[C@@H](F)S(=O)(=O)N[C@H]1CCCN2C(=O)CCOc3ccccc3-c3cccc(c3)C[C@@H]12 [Example 28, (S)-1-fluoro-N-((4^2S,4^3S)-5-oxo-8-oxa-4(2,1)-piperidina-1(1,2),2(1,3)-dibenzenacyclooctaphane-4^3-yl)ethane-1-sulfonamide]
17 | 10 to 100 nM |  | CN1CCOc2c(F)cc(F)cc2-c2cccc(c2)C[C@H]2[C@@H](NS(=O)(=O)C(F)F)C3(CC3)CN2C1=O [Example 31, N-((2′S,3′S)-3′,5′-difluoro-6′-methyl-5′-oxospiro[cyclopropane-1,4′-9-oxa-6-aza-4(2,1)-pyrrolidina-1(1,2),2(1,3)-dibenzenacyclononaphan]-3′-yl)-1,1-difluoromethanesulfonamide]
18 | 0.0398 to 1 nM |  | CCN1CCOc2ccccc2-c2cccc(c2)C[C@H]2[C@@H](NS(=O)(=O)CF)C3(CC3)CN2C1=O [Example 37, N-((2′S,3′S)-6′-ethyl-5′-oxospiro[cyclopropane-1,4′-9-oxa-6-aza-4(2,1)-pyrrolidina-1(1,2),2(1,3)-dibenzenacyclononaphan]-3′-yl)-1-fluoromethanesulfonamide]
19 | 1 to 10 nM |  | CCS(=O)(=O)N[C@H]1[C@@H](F)CN2C(=O)N(C)CCOc3ccccc3-c3cccc(c3F)C[C@@H]12 [Example 17, N-((4^2S,4^3R,4^4S)-2^2,4^4-difluoro-6-methyl-5-oxo-9-oxa-6-aza-4(2,1)-pyrrolidina-1(1,2),2(1,3)-dibenzenacyclononaphane-4^3-yl)ethanesulfonamide]
20 | 10 to 100 nM |  | CN1CCOc2c(F)cc(F)cc2-c2cccc(c2F)C[C@H]2[C@@H](NS(=O)(=O)C(F)F)[C@@H](F)CN2C1=O [Example 11, 1,1-difluoro-N-((4^2S,4^3R,4^4S)-1^3,1^5,2^2,4^4-tetrafluoro-6-methyl-5-oxo-9-oxa-6-aza-4(2,1)-pyrrolidina-1(1,2),2(1,3)-dibenzenacyclononaphane-4^3-yl)methanesulfonamide]
21 | 1 to 10 nM |  | CCS(=O)(=O)N[C@H]1CCCN2C(=O)CCOc3ccccc3-c3cccc(c3F)C[C@@H]12 [Example 27, N-((4^2S,4^3S)-22-fluoro-5-oxo-8-oxa-4(2,1)-piperidina-1(1,2),2(1,3)-dibenzenacyclooctaphane-4^3-yl)ethanesulfonamide]
